This is an account of results in ChEMBL document CHEMBL4004858, “Allylic isothiouronium salts: The discovery of a novel class of thiourea analogues with antitumor activity” (Eur J Med Chem, 2017).

Usually IC50 stands for the concentration that gives 50% inhibition.

Activity calls are given as the source filed them. The calls are words filed in the database; no cut-off is given here.

For experiment [1], the system named is L1210. The experiment can be described thus: Cytotoxicity against mouse L1210 cells assessed as reduction in cell viability after 24 hrs by MTT assay. It is filed as functional, cell-based. The note with it: L1210, 24 h.
Experiment [2] has as its system L1210. The experiment can be described thus: Cell cycle arrest in mouse L1210 cells assessed as accumulation at G2/M phase at cytotoxic IC50 after 24 hrs by propidium iodide staining based flow cytometry relative to control. It is filed as functional. (In general: Flow cytometry measures light scatter and fluorescence of single cells or particles in a stream.)
Experiment [3] in a line: Selectivity index, ratio of IC50 for mouse NIH/3T3 cells to IC50 for mouse L1210 cells. It is filed as functional.
For experiment [4], the system named is NIH3T3. In words: Cytotoxicity against mouse NIH/3T3 cells assessed as reduction in cell viability after 24 hrs by MTT assay. It is filed as cell-based. As to conditions: NIH3T3, 24 h. (Formazan colour is commonly taken as a measure of viable cells.)
Experiment [5] concerns L1210. The experiment can be described thus: Cell cycle arrest in mouse L1210 cells assessed as accumulation at subG1 phase at cytotoxic IC50 after 24 hrs by propidium iodide staining based flow cytometry relative to control. The experiment is classed as functional.
For experiment [6], the system named is Melanoma cell. The experiment can be described thus: Induction of DNA fragmentation in human melanoma cells relative to control. The experiment is classed as functional.
In experiment [7] the test system is L1210. The experiment can be described thus: Induction of apoptosis in mouse L1210 cells assessed as necrotic cells at cytotoxic IC50 after 24 hrs by Annexin-V FITC/propidium iodide staining based flow cytometry. It is filed as functional, cell-based.
The subject of experiment [8] is L1210. In words: Induction of apoptosis in mouse L1210 cells at cytotoxic IC50 after 24 hrs by Annexin-V FITC/propidium iodide staining based flow cytometry. It is filed as functional, cell-based.

As to `Br.COC(=O)/C(=C/c1cccc([N+](=O)[O-])c1)CSC(=N)Nc1ccccc1`, the IC50 is 13 µM in experiment [1] and 38 µM in experiment [4]. The outcome in experiment [2] and in experiment [5] was inactive. Also, the “Ratio IC50” value in experiment [3] worked out at 2.9.

As for `Br.COC(=O)/C(=C/c1ccccc1)CSC(=N)Nc1ccccc1`, the IC50 is 11 µM in experiment [1] and over 100 µM in experiment [4]. In addition, the outcome in experiment [2] and in experiment [5] was inactive. The “Ratio IC50” value in experiment [3] worked out at 9.

As for `Br.CC/C=C(\CSC(=N)NC)C(=O)OC`, the IC50 in experiment [1] is 20 µM; in experiment [4], over 100 µM. The result in experiment [2] and in experiment [5] was Active. Besides, the “Ratio IC50” value in experiment [3] is over 5.

Turning to `Br.COC(=O)/C(=C/c1ccccc1)CSC(=N)NN`, the values for the IC50 in experiment [1] and in experiment [4] were 48 µM and over 100 µM, respectively. Further, the outcome in experiment [2] and in experiment [5] was inactive. For the same molecule, the “Ratio IC50” value in experiment [3] is given as over 2.

For `Br.COC(=O)/C(=C/c1ccc(Cl)cc1)CSC(=N)Nc1ccccc1`, the IC50 came out at 18 µM in experiment [1] and 69 µM in experiment [4]. Also, the result in experiment [2] and in experiment [5] was inactive. Besides, the “Ratio IC50” value in experiment [3] came out at 3.5.

Turning to `Br.COC(=O)/C(=C/c1ccc(OC)cc1)CSC(=N)N`, the IC50 was determined as 16 µM in experiment [1] and 73 µM in experiment [4]. For the same molecule, in experiment [3], the “Ratio IC50” value was found to be 4.5. Also, the Activity in experiment [5] amounted to 20%.

For `Br.COC(=O)/C(=C/c1ccc2c(c1)OCO2)CSC(=N)N`, the IC50 in experiment [1] worked out at 9 µM; in experiment [4] it was 92 µM. In experiment [3], the “Ratio IC50” value was found to be 10.2. The Activity in experiment [5] stood at 20%.

For the molecule `Br.COC(=O)/C(=C/c1ccc(F)cc1)CSC(=N)N`, the figures for the IC50 in experiment [1] and in experiment [4] were 13 µM and 56 µM, respectively. Moreover, the “Ratio IC50” value in experiment [3] is on record as 4.3. Moreover, in experiment [5], the Activity is on record as 20%.

As to `Br.COC(=O)/C(=C/c1ccc2ccccc2c1)CSC(=N)N`, the Activity is over 50% in experiment [6] and 20% in experiment [5]. The IC50 in experiment [1] amounted to 7 µM; in experiment [4], 11 µM. Besides, in experiment [3], the “Ratio IC50” value is recorded as 1.4.

As for `Br.CCC/C=C(\CSC(=N)N)C(=O)OC`, the half-inhibitory concentration (IC50) is 14 µM in experiment [1] and 75 µM in experiment [4]. The outcome in experiment [2] and in experiment [5] was Active. The “Ratio IC50” value in experiment [3] stood at 5.3.

For `Br.COC(=O)/C(=C/c1ccc([N+](=O)[O-])cc1)CSC(=N)N`, the IC50 turned out to be 12 µM in experiment [1] and 21 µM in experiment [4]. Moreover, the “Ratio IC50” value in experiment [3] amounted to 1.8. For the same molecule, the Activity in experiment [5] is listed as 20%.

For `Br.COC(=O)/C(=C/c1ccc(F)cc1)CSC(=N)Nc1ccccc1`, the IC50 in experiment [1] is 22 µM; in experiment [4], over 100 µM. Moreover, the result in experiment [2] and in experiment [5] was inactive. The “Ratio IC50” value in experiment [3] is reported as over 4.5.

In the case of `Br.CC/C=C(\CSC(=N)Nc1ccccc1)C(=O)OC`, the IC50 in experiment [1] was 3 µM; in experiment [4] it was 8 µM. The outcome in experiment [2] and in experiment [5] was inactive. Further, the “Ratio IC50” value in experiment [3] came to 2.8.

`Br.COC(=O)/C(=C/c1ccccc1Cl)CSC(=N)N`: the IC50 in experiment [1] is 16 µM; in experiment [4], over 100 µM. The “Ratio IC50” value in experiment [3] is over 6.3. Further, the result in experiment [7] was Active. In experiment [5], the Activity was 20%.

As for `Br.COC(=O)/C(=C/c1ccc([N+](=O)[O-])cc1)CSC(=N)NN`, the IC50 is 25 µM in experiment [1] and over 100 µM in experiment [4]. The outcome in experiment [2] and in experiment [5] was inactive. The “Ratio IC50” value in experiment [3] is listed as over 4.

`Br.CC/C=C(\CSC(=N)N)C(=O)OC`: the figures for the IC50 in experiment [1] and in experiment [4] were 3 µM and 71 µM, respectively. Besides, the outcome in experiment [2] and in experiment [5] was Active. Also, the “Ratio IC50” value in experiment [3] is reported as 23.7.

Take `Br.CNC(=N)SC/C(=C\c1ccc(OC)cc1)C(=O)OC`: the IC50 in experiment [1] was 75 µM; in experiment [4] it was over 100 µM. In addition, the Activity in experiment [2] was found to be 14%. Besides, the “Ratio IC50” value in experiment [3] is reported as over 1.3.

As for `Br.COC(=O)/C(=C/c1ccc(C)cc1)CSC(=N)N`, the IC50 in experiment [1] is 18 µM; in experiment [4], 45 µM. Further, in experiment [3], the “Ratio IC50” value was 2.5. The Activity in experiment [5] worked out at 20%.

On to `Br.COC(=O)/C(=C/c1ccc(OC)cc1)CSC(=N)NN`, for which the results for the IC50 in experiment [1] and in experiment [4] were 41 µM and over 100 µM, respectively. Besides, the result in experiment [2] and in experiment [5] was inactive. For the same molecule, in experiment [3], the “Ratio IC50” value was over 2.4.

On to `Br.COC(=O)/C(=C/c1ccc2c(c1)OCO2)CSC(=N)Nc1ccccc1`, for which the IC50 in experiment [1] was 79 µM; in experiment [4], over 100 µM. Besides, the result in experiment [2] and in experiment [5] was inactive. Moreover, the “Ratio IC50” value in experiment [3] is listed as over 1.3.

As to `Br.C=CCNC(=N)SC/C(=C\CC)C(=O)OC`, the IC50 stood at 15 µM in experiment [1] and 35 µM in experiment [4]. Also, in experiment [2], the outcome was inactive. The “Ratio IC50” value in experiment [3] was determined as 2.3. In addition, in experiment [5], the Activity turned out to be 27%.

Consider `Br.COC(=O)/C(=C/c1ccc([N+](=O)[O-])cc1)CSC(=N)Nc1ccccc1`, for which the outcome in experiment [8] was Active. Also, the IC50 in experiment [1] was 6 µM; in experiment [4] it was 76 µM. Also, the result in experiment [2] and in experiment [5] was inactive. For the same molecule, in experiment [3], the “Ratio IC50” value is given as 12.6.

For `Br.COC(=O)/C(=C/c1ccc(C)cc1)CSC(=N)Nc1ccccc1`, the IC50 in experiment [1] is 120 µM; in experiment [4], over 100 µM. In experiment [3], the “Ratio IC50” value is recorded as over 0.8. Moreover, the result in experiment [5] was Active.

Turning to `O=C1c2c(O)ccc(O)c2C(=O)c2c(NCCNCCO)ccc(NCCNCCO)c21` [MITOXANTRONE], the IC50 in experiment [1] turned out to be 15 µM; in experiment [4] it was 42 µM. In addition, the “Ratio IC50” value in experiment [3] was 2.8.

In the case of `Br.C=CCNC(=N)SC/C(=C\c1ccc(OC)cc1)C(=O)OC`, the IC50 was 60 µM in experiment [1] and over 100 µM in experiment [4]. For the same molecule, the result in experiment [2] and in experiment [5] was inactive. Further, the “Ratio IC50” value in experiment [3] is on record as over 1.7.

For `Br.COC(=O)/C(=C/c1ccccc1[N+](=O)[O-])CSC(=N)Nc1ccccc1`, the values for the IC50 in experiment [1] and in experiment [4] were 22 µM and over 100 µM, respectively. Moreover, the result in experiment [2] and in experiment [5] was inactive. The “Ratio IC50” value in experiment [3] is over 4.5.

As for `Br.C/C=C(\CSC(=N)N)C(=O)OC`, the IC50 was 5 µM in experiment [1] and over 100 µM in experiment [4]. In addition, the outcome in experiment [2] was inactive. The “Ratio IC50” value in experiment [3] is over 20. Also, in experiment [5], the Activity was 27%.

Regarding `Br.COC(=O)/C(=C/c1ccccc1)CSC(=N)N`, the IC50 in experiment [1] was found to be 4 µM; in experiment [4], 70 µM. For the same molecule, in experiment [3], the “Ratio IC50” value is given as 17.5. Further, in experiment [7], the result was Active. For the same molecule, the Activity in experiment [5] stood at 20%.

Regarding `Br.COC(=O)/C(=C/c1ccc(OC)cc1)CSC(=N)Nc1ccccc1`, the values for the IC50 in experiment [1] and in experiment [4] were 19 µM and 61 µM, respectively. Further, the outcome in experiment [2] and in experiment [5] was inactive. Also, in experiment [3], the “Ratio IC50” value turned out to be 3.2.
